These are literature values, as cited in patent US20170326066A1, “METHOD OF TREATING HYPERTENSION” (Ezra Pharma LLC, priority 2016, published 2017).

As to `CCCCC(=O)N(Cc1ccc(-c2ccccc2-c2nnn[nH]2)cc1)[C@H](C(=O)O)C(C)C` [valsartan], the “peak plasma concentration reduced to” value (by 12 hours) is “approximately 65%”. In addition, the “time by which plasma levels reach very low level” value (following Cmax) is 10 to 12 h. Moreover, the half-life result (in vivo) was “about 6 hours”. In addition, where the note is “oral administration”, the Tmax – broadly, the time at which the peak concentration occurs – is 2 to 4 h; the absolute bioavailability entry was “about 25%”; the “absolute bioavailability (range)” value is reported as 10-35%.
